Where only a bound is given, the exact number is not on record here.

By EC50 is commonly meant the concentration needed to bring the measured effect to its halfway point. Usually Ki stands for a measure of affinity in units of concentration, obtained from inhibition or displacement.

For test [1], the target named is T1, N-arachidonyl glycine receptor (Mus musculus, UniProt Q8K1Z6).
T1 sequence (Q8K1Z6 whole entry): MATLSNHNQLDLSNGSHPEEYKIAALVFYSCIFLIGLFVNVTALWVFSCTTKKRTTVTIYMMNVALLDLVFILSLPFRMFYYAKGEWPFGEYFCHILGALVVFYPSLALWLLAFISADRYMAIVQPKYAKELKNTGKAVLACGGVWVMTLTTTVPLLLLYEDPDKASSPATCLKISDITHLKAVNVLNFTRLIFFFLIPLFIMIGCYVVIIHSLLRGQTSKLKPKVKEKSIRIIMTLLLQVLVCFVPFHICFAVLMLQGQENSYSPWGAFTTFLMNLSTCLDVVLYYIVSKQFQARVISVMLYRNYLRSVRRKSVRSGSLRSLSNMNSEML
Description: Agonist activity at mouse GPR18 expressed in CHO cells assessed as activation by measuring beta-arrestin2 recruitment incubated for 90 mins by luminescence based assay

In test [2] the target is T2, N-arachidonyl glycine receptor (Homo sapiens, UniProt Q14330).
T2 sequence (Q14330 whole entry): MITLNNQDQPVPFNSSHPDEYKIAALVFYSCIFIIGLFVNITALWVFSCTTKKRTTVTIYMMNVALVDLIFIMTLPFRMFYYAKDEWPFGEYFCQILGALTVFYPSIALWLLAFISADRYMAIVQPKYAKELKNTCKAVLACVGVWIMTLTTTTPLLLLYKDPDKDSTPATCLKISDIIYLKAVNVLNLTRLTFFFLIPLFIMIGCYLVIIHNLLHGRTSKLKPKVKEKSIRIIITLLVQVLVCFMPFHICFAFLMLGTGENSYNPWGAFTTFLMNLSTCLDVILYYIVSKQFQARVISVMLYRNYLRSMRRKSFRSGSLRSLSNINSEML
Description: Agonist activity at human GPR18 expressed in CHO cells assessed as activation by measuring beta-arrestin2 recruitment incubated for 90 mins by luminescence based assay. It counts as functional, cell-based. (In general: Arrestin recruitment assays detect the binding of arrestin to an activated receptor.)

The target of test [3] is Cannabinoid receptor 1 (Homo sapiens, UniProt P21554). Description: Displacement of [3H]-CP55940 from human CB1 receptor expressed in CHO cells assessed as inhibition constant by radioligand competition binding assay. The test is classed as cell-based.
Sequence of Cannabinoid receptor 1 (P21554 whole entry): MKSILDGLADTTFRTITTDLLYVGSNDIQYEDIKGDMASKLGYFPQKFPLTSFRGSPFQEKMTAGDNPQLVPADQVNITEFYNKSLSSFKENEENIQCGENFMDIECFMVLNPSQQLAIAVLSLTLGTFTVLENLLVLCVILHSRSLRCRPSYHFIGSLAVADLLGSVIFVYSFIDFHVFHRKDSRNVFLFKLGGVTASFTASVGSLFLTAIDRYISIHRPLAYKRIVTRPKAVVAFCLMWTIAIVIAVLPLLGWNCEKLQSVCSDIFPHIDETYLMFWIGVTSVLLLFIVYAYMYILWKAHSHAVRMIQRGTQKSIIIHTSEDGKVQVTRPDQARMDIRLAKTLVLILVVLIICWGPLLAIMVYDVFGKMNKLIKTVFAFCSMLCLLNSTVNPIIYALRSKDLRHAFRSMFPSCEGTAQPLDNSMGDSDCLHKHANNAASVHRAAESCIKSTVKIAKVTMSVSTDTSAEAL
In test [4] the target is Cannabinoid receptor 2 (Homo sapiens, UniProt P34972). Description: Displacement of [3H]-CP55940 from human CB2 receptor expressed in CHO cells assessed as inhibition constant by radioligand competition binding assay. The test is classed as cell-based. (Loss of bound radioactivity is the signal in a displacement assay; it reports binding, not function.)
Sequence of Cannabinoid receptor 2 (P34972 whole entry): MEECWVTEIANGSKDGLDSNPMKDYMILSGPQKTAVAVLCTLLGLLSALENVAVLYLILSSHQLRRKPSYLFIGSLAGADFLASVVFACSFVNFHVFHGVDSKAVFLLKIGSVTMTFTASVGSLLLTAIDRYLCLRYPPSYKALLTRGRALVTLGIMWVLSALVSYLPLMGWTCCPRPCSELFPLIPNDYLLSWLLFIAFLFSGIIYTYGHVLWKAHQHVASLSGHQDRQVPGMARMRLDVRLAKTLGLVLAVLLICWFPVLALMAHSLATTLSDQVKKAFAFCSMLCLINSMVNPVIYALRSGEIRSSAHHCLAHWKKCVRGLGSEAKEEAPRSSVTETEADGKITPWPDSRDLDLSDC

In turn, `Cn1c(=O)c2c(nc(NCCc3c[nH]c4ccccc34)n2Cc2cccc(F)c2)n(C)c1=O` had a concentration giving a half-maximal response (EC50) in test [1] of 301 nM.
`Cn1c(=O)c2c(nc(NCCc3c[nH]c4ccccc34)n2Cc2ccc(F)c(Cl)c2)n(C)c1=O`: the 50% effective concentration (EC50) stood at 193 nM in test [2] and 251 nM in test [1].
As to `Cn1c(=O)c2c(nc(NCCc3c[nH]c4ccccc34)n2Cc2ccc(C(F)(F)F)cc2)n(C)c1=O`, the EC50 is 136 nM in test [2] and 216 nM in test [1].
Taken in the same sequence, the figures for `Cn1c(=O)c2c(nc(NCCc3c[nH]c4ccccc34)n2Cc2ccc(Cl)cc2)n(Cc2ccccc2)c1=O` were above 10000 nM and 393 nM.
For the compound `Cc1ccc(Cn2c(NCCc3c[nH]c4ccccc34)nc3c2c(=O)n(C)c(=O)n3C)cc1`, the half-maximal effective concentration (EC50) is 24 nM in test [2] and 46 nM in test [1]. Moreover, the Ki was 3480 nM in test [3] (read-out: Ki) and 827 nM in test [4].
Regarding `Cn1c(=O)c2c(nc(NCCc3c[nH]c4ccccc34)n2Cc2ccc(Cl)cc2)n(CC(F)(F)F)c1=O`, a half-maximal response in test [1] (EC50) required 711 nM.
As for `Cn1c(=O)c2c(nc(NCCc3c[nH]c4ccccc34)n2Cc2cccc(Cl)c2)n(C)c1=O`, the half-maximal effective concentration (EC50) in test [2] was 71 nM; in test [1], 220 nM. Moreover, the inhibition constant (Ki) in test [4] came to 896 nM.
For the compound `CCCn1c(=O)n(C)c(=O)c2c1nc(NCCc1c[nH]c3ccccc13)n2Cc1ccc(Cl)cc1`, the half-maximal effective concentration (EC50) in test [2] and in test [1] was above 10000 nM in each case.
For `C#CCn1c(NCCc2c[nH]c3ccccc23)nc2c1c(=O)n(C)c(=O)n2C`, the EC50 stood at 247 nM in test [2] and 318 nM in test [1].
In the case of `CCCCn1c(NCCc2c[nH]c3ccccc23)nc2c1c(=O)n(C)c(=O)n2C`, the EC50 in test [2] came to 151 nM; in test [1], 207 nM.
The compound `Cn1c(=O)c2c(nc3n2CCCCN3CCc2c[nH]c3ccccc23)n(C)c1=O` returned an EC50 in test [1] of 582 nM.
`Cn1c(=O)c2c(nc(NCCc3c[nH]c4ccccc34)n2Cc2cccc(Br)c2)n(C)c1=O`: the values for the EC50 in test [2] and in test [1] were 10 nM and 180 nM, respectively. Besides, the Ki in test [4] is 344 nM.
Consider `C=CCn1c(NCCc2c[nH]c3ccccc23)nc2c1c(=O)n(C)c(=O)n2C`, for which the 50% effective concentration (EC50) in test [2] turned out to be 169 nM; in test [1], 379 nM.
As to `CCCn1c(NCCc2c[nH]c3ccccc23)nc2c1c(=O)n(C)c(=O)n2C`, the concentration for a half-maximal effect (EC50) stood at 196 nM in test [2] and 299 nM in test [1].
`Cn1c(=O)c2c(nc(NCCc3c[nH]c4ccccc34)n2CCC2CCCCC2)n(C)c1=O` displayed an EC50 in test [1] of 127 nM.
`CCC#CCn1c(NCCc2c[nH]c3ccccc23)nc2c1c(=O)n(C)c(=O)n2C`: the EC50 was determined as 254 nM in test [2] and 371 nM in test [1].
Compound `CCCNS(=O)(=O)c1ccc(Cn2c(NCCc3c[nH]c4ccccc34)nc3c2c(=O)n(C)c(=O)n3C)cc1` had an EC50 in test [1] of 1300 nM.
As for `COC(=O)c1ccc(Cn2c(NCCc3c[nH]c4ccccc34)nc3c2c(=O)n(C)c(=O)n3C)cc1`, the results for the EC50 in test [2] and in test [1] were 469 nM and 488 nM, respectively.
Take `Cn1c(=O)c2c(nc(NCCc3c[nH]c4ccccc34)n2Cc2ccc(Cl)cc2)n(CC#N)c1=O`: the values for the EC50 in test [2] and in test [1] were 1220 nM and 981 nM, respectively.
Taken in the same sequence, the figures for `Cn1c(=O)c2c(nc(NCCc3c[nH]c4ccccc34)n2Cc2ccc(F)c(F)c2)n(C)c1=O` were 142 nM and 161 nM.
On to `C=CCCn1c(NCCc2c[nH]c3ccccc23)nc2c1c(=O)n(C)c(=O)n2C`, for which the EC50 in test [1] is 447 nM.
On to `CC(=O)Nc1ccc(Cn2c(NCCc3c[nH]c4ccccc34)nc3c2c(=O)n(C)c(=O)n3C)cc1`, for which the concentration for a half-maximal effect (EC50) in test [2] came out at 218 nM; in test [1], 281 nM.
For `Cn1c(=O)c2c(nc(NCCc3c[nH]c4ccccc34)n2Cc2ccc(S(N)(=O)=O)cc2)n(C)c1=O` the same measures were 6640 nM and 10900 nM.
Turning to `Cn1c(=O)c2c(nc(NCCc3c[nH]c4ccccc34)n2Cc2ccc(Cl)cc2Cl)n(C)c1=O`, the EC50 in test [2] was 64 nM; in test [1] it was 244 nM.
For the compound `Cn1c(=O)c2c(nc(NCCc3c[nH]c4ccccc34)n2CCF)n(C)c1=O`, the EC50 in test [2] worked out at 1390 nM; in test [1], 2640 nM.
Consider `CC(C)c1ccc(Cn2c(NCCc3c[nH]c4ccccc34)nc3c2c(=O)n(C)c(=O)n3C)cc1`, for which the Ki in test [3] (read-out: Ki) is 6280 nM; in test [4], 150 nM. Besides, the EC50 in test [1] amounted to 150 nM.
`Cn1c(=O)c2c(nc(NCCc3c[nH]c4ccccc34)n2Cc2ccc(Cl)c(F)c2)n(C)c1=O` had an EC50 in test [1] of 121 nM.
In test [1], `Cn1c(=O)c2c(nc(NCCc3c[nH]c4ccccc34)n2CCOc2ccc(Cl)cc2)n(C)c1=O` came in with an EC50 of 444 nM.
In turn, `Cn1c(=O)c2c(nc(NCCc3c[nH]c4ccccc34)n2Cc2c(Cl)cccc2Cl)n(C)c1=O` had an EC50 in test [1] of 559 nM.
Consider `COc1ccc(Cn2c(NCCc3c[nH]c4ccccc34)nc3c2c(=O)n(C)c(=O)n3C)cc1`, for which the results for the EC50 in test [2] and in test [1] were 138 nM and 171 nM, respectively. In addition, the inhibition constant (Ki) entry in test [3] (cho) is “Not Active”.
Consider `Cn1c(=O)c2c(nc(NCCc3c[nH]c4ccccc34)n2Cc2ccc(C(N)=O)cc2)n(C)c1=O`, for which the values for the EC50 in test [2] and in test [1] were 3600 nM and 4000 nM, respectively.
Consider `Cn1c(=O)c2c(nc(NCCc3c[nH]c4ccccc34)n2Cc2ccccc2F)n(C)c1=O`, for which the EC50 in test [2] stood at 137 nM; in test [1] it was 128 nM.
Take `Cn1c(=O)c2c(nc(NCCc3c[nH]c4ccccc34)n2Cc2ccccc2Br)n(C)c1=O`: the EC50 was 189 nM in test [2] and 156 nM in test [1]. The inhibition constant Ki in test [4] stood at 1690 nM.
Take `C=C(C)[C@@H]1CCC(C)=C[C@H]1c1c(O)cc(O)cc1CCCCC`: the concentration giving a half-maximal response (EC50) in test [2] and in test [1] was above 10000 nM in each case.
In the case of `Cn1c(=O)c2c(nc(NCCc3c[nH]c4ccccc34)n2CCCc2ccccc2)n(C)c1=O`, the midpoint of the response in test [1], the EC50, lay at 230 nM.
With `COc1cccc(Cn2c(NCCc3c[nH]c4ccccc34)nc3c2c(=O)n(C)c(=O)n3C)c1`, the EC50 in test [2] was found to be 166 nM; in test [1], 245 nM.
For `Cn1c(=O)c2c(nc(NCCc3c[nH]c4ccccc34)n2CCc2ccccc2)n(C)c1=O` the same measures were 442 nM and 288 nM.
Turning to `Cn1c(=O)c2c(nc(NCCc3c[nH]c4ccccc34)n2Cc2ccc(N)cc2)n(C)c1=O`, it took 241 nM to reach a half-maximal effect in test [1] (EC50).
The same measure, in the same setting: in the case of `Cn1c(=O)c2c(nc(NCCc3c[nH]c4ccccc34)n2Cc2ccc([N+](=O)[O-])cc2)n(C)c1=O` it was 280 nM; in that of `Cn1c(=O)c2c(nc(NCCc3c[nH]c4ccccc34)n2Cc2ccc(Cl)cc2)n(CCO)c1=O`, 1200 nM.
As for `Cn1c(=O)c2c(nc(NCCc3c[nH]c4ccccc34)n2Cc2ccc(Cl)cc2)n(CCF)c1=O`, the EC50 in test [2] was 351 nM; in test [1] it was 398 nM.
As to `CNS(=O)(=O)c1ccc(Cn2c(NCCc3c[nH]c4ccccc34)nc3c2c(=O)n(C)c(=O)n3C)cc1`, the values for the concentration giving a half-maximal response (EC50) in test [2] and in test [1] were 3670 nM and 3630 nM, respectively.
As for `Cn1c(=O)c2c(nc(NCCc3c[nH]c4ccccc34)n2Cc2ccccc2)n(C)c1=O`, the results for the EC50 in test [2] and in test [1] were 149 nM and 194 nM, respectively.
Regarding `Cn1c(=O)c2c(nc3n2CCCN3CCc2c[nH]c3ccccc23)n(C)c1=O`, the EC50 in test [1] came to 1780 nM.
Turning to `CCn1c(NCCc2c[nH]c3ccccc23)nc2c1c(=O)n(C)c(=O)n2C`, the EC50 in test [2] came to 190 nM; in test [1], 379 nM.
In test [1], `Cn1c(=O)c2c(nc(NCCc3c[nH]c4ccccc34)n2CCOc2ccccc2)n(C)c1=O` came in with an EC50 of 334 nM.
In the case of `Cn1c(=O)c2c(nc(NCCc3c[nH]c4ccccc34)n2Cc2ccc(F)cc2)n(C)c1=O`, the results for the half-maximal effective concentration (EC50) in test [2] and in test [1] were 54 nM and 124 nM, respectively.
Taken in the same sequence, the figures for `CCn1c(=O)n(C)c(=O)c2c1nc(NCCc1c[nH]c3ccccc13)n2Cc1ccc(Cl)cc1` were 95 nM and 297 nM.
As for `Cn1c(=O)[nH]c2nc(NCCc3c[nH]c4ccccc34)n(Cc3ccc(Cl)cc3)c2c1=O`, the half-maximal effective concentration (EC50) in test [2] amounted to 206 nM; in test [1] it was 290 nM.
Regarding `CCCCC/C=C\C/C=C\C/C=C\C/C=C\CCCC(=O)NCC(=O)O` [ARACHIDONOYL GLYCINE], the concentration for a half-maximal effect (EC50) in test [2] and in test [1] was above 10000 nM each time.
With `Cn1c(=O)c2c(nc(NCCc3c[nH]c4ccccc34)n2C)n(C)c1=O`, the EC50 in test [2] stood at 902 nM; in test [1], 2970 nM.
As for `Cn1c(=O)c2c(nc(NCCc3c[nH]c4ccccc34)n2Cc2ccccc2Cl)n(C)c1=O`, the EC50 in test [2] is 60 nM; in test [1], 157 nM. For the same compound, the inhibition constant Ki in test [3] (read-out: Ki) and in test [4] was above 10000 nM each time.
Consider `Cn1c(=O)c2c(nc(NCCc3c[nH]c4ccccc34)n2Cc2ccc(Br)cc2)n(C)c1=O`, for which a half-maximal response in test [1] (EC50) required 58 nM.
On to `CCCNC(=O)c1ccc(Cn2c(NCCc3c[nH]c4ccccc34)nc3c2c(=O)n(C)c(=O)n3C)cc1`, for which the half-maximal effective concentration (EC50) is 1410 nM in test [2] and 1270 nM in test [1].
For the compound `Cn1c(=O)c2c(nc(NCCc3c[nH]c4ccccc34)n2Cc2ccc(Cl)c(Cl)c2)n(C)c1=O`, the results for the EC50 in test [2] and in test [1] were 74 nM and 90 nM, respectively.

Values taken from ChEMBL document CHEMBL5500402, “Potent, Selective Agonists for the Cannabinoid-like Orphan G Protein-Coupled Receptor GPR18: A Promising Drug Target for Cancer and Immunity” (J Med Chem, 2024).
